Results from ChEMBL document CHEMBL3507680, “University of Dundee, Gates Library screen for HepG2 cell viability”.

Test: Human HepG2 cell viability assay in 384 well format
Assay type: toxicity, cell-based
Design: dose 125 nL, time 70.5 hour; concentration not given beside the values
Details: HepG2 cells, read-out: Inhibition

Structure (SMILES) | cytotoxicity at 70.5 h [%]
COc1ccccc1CC(=O)NCCCN1CCCC1C(=O)N(C)C (stereo not drawn) | 2.29
CCCc1nn(C2CCN(C(C)C)C2=O)c(=O)o1 (stereo not drawn) | -1.04
O=C(COCC(F)(F)C(F)F)N1CCC(c2ncc[nH]2)CC1 | -5.35
O=C(NCCn1cccn1)c1ccn(-c2cccc(F)c2)n1 | -11.4
CN(Cc1ccco1)C1COC2(CCN(Cc3nccs3)CC2)C1 (stereo not drawn) | -21.8
CN(CC(=O)Nc1ccccc1)C(=O)CN(C)c1ccc(Cl)cn1 | -10.4
CCCN(CCC)C(=O)CN(C)C1CCc2ccccc21 (stereo not drawn) | -7.56
Cc1cc(CN2CCC(N(C)Cc3noc(C4CC4)n3)C2)on1 (stereo not drawn) | 19.5
CC1CN(CC(=O)Nc2ccncc2)CCN1Cc1nccn1C (stereo not drawn) | -0.423
CC(=O)c1cc(CC(=O)NCc2ccc(F)cc2)cs1 | -1.82
Cc1nc(NCc2nncn2C2CC2)c2c(CC(C)C)csc2n1 | 20
Cc1nnc(SCCCNC(=O)Nc2ccc3c(c2)OCO3)s1 | 11.4
COc1ccc(-c2nc(CN3CCCC(OC)C3)c(C)o2)c(F)c1 (stereo not drawn) | 10.8
COc1ccccc1CNC(=O)C1=NN(c2ccc(C)cc2)C(=O)CN1 | -4.66
CN(C)C(=O)N[C@@H]1CN(Cc2ccc3c(c2)OCO3)[C@@H]2CCCO[C@@H]21 | 3.25
Cn1nccc1C(=O)N1CCOC(Cc2cccc(C(F)(F)F)c2)C1 (stereo not drawn) | 4.43
CC(=O)NCc1ccc(-n2ccnc2C)nc1 | -14.4
Cc1cc(C(=O)N2CCN(C(=O)Cc3ccccn3)CC2)c(C)s1 | 0.259
O=C(NCc1nnc2n1CCC2)c1cccc(Br)c1 | -9.88
CCc1nc(CN(C)C2CCN(CCS(C)(=O)=O)C2)no1 (stereo not drawn) | 2.72
CN1CCN(Cc2cn3c(n2)CN(C2CCOCC2)CC3)CC1 | -6.56
CCNc1ccnc(NCc2cn3nc(C)sc3n2)n1 | -15.7
CCCN1CCC(CC(=O)N(C)CC(=O)c2ccc(O)cc2)CC1 | -12.2

Structure (SMILES) | cytotoxicity at 70.5 h [%]
O=C(NC1CCN(CC2CC2)C1)c1ccc(N2CCC(O)CC2)cc1 (stereo not drawn) | -7.24
CN(CCc1ccccn1)c1cc(N2CCCCC2)ncn1 | -6.31
c1ccc(Cc2noc(CN3CCCCC3Cn3cccn3)n2)cc1 (stereo not drawn) | -9.87
Cn1cc(C(=O)N2CCCC2c2ccc3c(c2)OCO3)ccc1=O (stereo not drawn) | -1.44
CN(C(=O)c1cccc(NCc2cccs2)c1)C(C1CC1)C1CC1 | -11.2
COC(=O)c1cc(NC2CCN(CC(F)(F)F)C2=O)ccc1C (stereo not drawn) | -1.18
c1ccc(-c2nc(CN3CCOC(Cn4cncn4)C3)cs2)cc1 (stereo not drawn) | -3.05
CC(C)(C)Nc1c(C2CCCN(C(=O)C3CC3)C2)nc2ccccn12 (stereo not drawn) | 17
c1cc(CNc2ncc(-c3cnccn3)c([C@@H]3CCCO3)n2)ccn1 | -5.57
CCC1=NC2(CCC(C(=O)Nc3ccc(F)cc3)CC2)C(=O)N1C (stereo not drawn) | -5.04
CN(Cc1ccccc1)CC1(O)CCCN(CCC2CCCCC2)C1=O (stereo not drawn) | 29.6
COc1ccc(N(C(=O)c2cnc(C)cn2)C(C)C)cc1F | -3.96
CCn1nc(CC(C)C)cc1C(=O)N1CCC(n2cnnc2)CC1 | 8.59
CCCc1nc(C)c(CNc2nc(C)nc3oc(C)nc23)s1 | -8.14
Clc1ccccc1C1CN(CCc2ccncc2)CCO1 (stereo not drawn) | -6.68
Cc1cc(C2CCC2)nc(NCC(C)(C)N2CCCC2)n1 | -16.9
O=C(C(C1CC1)C1CC1)N1CCC(n2ccnn2)CC1 | -9.3
Cc1cc(C)n(CCNCc2cc(-c3ccccc3)c[nH]c2=O)n1 | -9.26
O=C(CC1CN(Cc2ccccc2)CCO1)NC1CCCC1 (stereo not drawn) | 11.6
CN(C)C(=O)C1SCCc2ccccc21 (stereo not drawn) | -6.79
CCC[C@H]1CN(CCS(C)(=O)=O)C[C@@H]1NC(=O)c1ccccc1F | -2.49
Cc1sc(NC(=O)CN(C)S(C)(=O)=O)c(C#N)c1C | 10
CCNC(=O)N1CC[C@H]2CC(=O)N(C3CCCCC3)CC[C@H]2C1 | -5.33

Structure (SMILES) | cytotoxicity at 70.5 h [%]
COc1cccc(NC(=O)NCC(O)c2ccc(F)cc2F)c1 (stereo not drawn) | -6.35
Cn1cc(N2CCN(c3ccc(C#N)cc3F)CC2=O)cn1 | -3.17
c1ccc(CN2CCCC2Cn2cncn2)nc1 (stereo not drawn) | 7.22
Cc1noc(C2CN(S(C)(=O)=O)Cc3ccnn3C2)n1 (stereo not drawn) | -7.77
CCc1ncc(C(=O)N(CCOC)Cc2nccs2)cn1 | 5.06
COCCCC1CCCN(C(=O)CCc2csc(N)n2)C1 (stereo not drawn) | -11.8
NC(=O)c1cc2c(nc1-c1ccc3c(c1)OCCO3)CCC2 | -9.8
Cc1n[nH]c(C)c1NC(=O)CN(CC(O)c1ccc(F)cc1)C1CC1 (stereo not drawn) | -3.36
CN1CCN(c2ccc(C(=O)N3CCCC(c4ncc[nH]4)C3)cc2)CC1 (stereo not drawn) | -9.77
CCCc1noc(CCC(=O)N2CCCC2c2cccs2)n1 (stereo not drawn) | -2.53
CNC(=O)COc1c(C(C)=O)ccc(Cl)c1Cl | -8.98
CC(C)NC(=O)NC[C@H]1OC[C@@H](NCc2cccs2)[C@@H]1O | 9.03
CCc1nc(C2CCCN2CC(=O)Nc2cc(C)on2)no1 (stereo not drawn) | -6.96
CNC(=O)COc1ccc(CNCc2c(C)nn(C)c2N(C)C)cc1 | -0.911
CCc1noc(C(C)N2CCC(NC(=O)c3ccc(C)s3)CC2)n1 (stereo not drawn) | -7.01
CN1CCN(c2cnn(Cc3ccc(S(C)(=O)=O)cc3)c(=O)c2)CC1 | -2.57
O=C(N1CCOCC1)N1CCN(c2ccncc2Cl)CC1 | 1.32
O=C1O[C@@H]2CN(c3ccncc3)C[C@@H]2N1CCCc1ccc(F)cc1 | -6.08
COCC1CCN(S(=O)(=O)N2C[C@H](c3ccccc3)[C@@H](N)C2)CC1 | -1.87
CN1CCC2(Cc3ccccc3CN(C(=O)Cc3cccc(Cl)c3)C2)C1 (stereo not drawn) | 30.2
O=C(CN1C=Nc2ccccc2S1(=O)=O)NCCCc1ccccc1 | -12.6
Cc1nc(C(=O)Nc2cc(N3CCNC3=O)ccc2Cl)cs1 | -2.48
CS(=O)(=O)N1C[C@@H]2CCN(C(=O)c3ccco3)[C@@H]2C1 | -2.6

Structure (SMILES) | cytotoxicity at 70.5 h [%]
O=C(Nc1nc2c(s1)CN(S(=O)(=O)C1CC1)CC2)c1ccc(Cl)s1 | -11.1
CCC(CO)N(Cc1cccnc1)Cc1ccc(-c2ccn[nH]2)s1 (stereo not drawn) | -7.15
O=C(CNC(=O)Nc1cccc(Cl)c1SC(F)F)NC1CC1 | 16.9
CC(C)c1nsc(NC2CC(=O)N(C(C)(C)C)C2)n1 (stereo not drawn) | -8.61
CN1C(=O)[C@H]2CC[C@@H]1CN(C(=O)c1csc(Cc3ccccc3)n1)C2 | -11.4
CCN1CC(COC(=O)c2ccc(Br)cc2F)CC1=O (stereo not drawn) | -6.68
CN(C)C(=O)c1nc(CN2CC(c3ccccc3)CC2=O)no1 (stereo not drawn) | 10.4
CCN1CCN(Cc2nc(Cc3ccccc3)n[nH]2)CC1 | -5.11
CCCN(Cc1nccn1C)C(=O)c1cnn[nH]1 | 7.26
CNC(=O)[C@@H]1C[C@H](n2cc(-c3ccc(Cl)cc3)nn2)CN1 | -3.41
Cn1cc(CN2CCCC23CCN(Cc2nccn2C)CC3)cn1 | 3.37
COc1ccc(/C=C/CN2CCCC3(C2)CN(C)C(=O)O3)cc1 (stereo not drawn) | 11.6
O=C(c1ccc[nH]1)N1CCCC2(CCCN2Cc2cccnc2)C1 (stereo not drawn) | 11.9
Cc1ccc(NC(=O)c2nc(N3CCCCC3)ncc2Cl)cc1I | -7.45
Cc1cc(CS(=O)(=O)C(C)C(=O)N(C)c2ccccc2)on1 (stereo not drawn) | -28.7
O=C(c1ccncc1)N1CCN(C(=O)c2coc3ccccc23)CC1 | -11
Cc1nc(C(C)(C)C)sc1C(=O)NCCNc1ncccc1C#N | -7.48
Cc1ncc(CC(=O)N2CCCC(COc3ccccc3F)C2)c(=O)[nH]1 (stereo not drawn) | -9.07
Cc1cccc2c(CCNC(=O)NCCC[S+](C)[O-])c[nH]c12 (stereo not drawn) | -1.72
Cn1cncc1C(=O)N1CCOC2(COCCN(CC3CC3)C2)C1 (stereo not drawn) | -1.4
CCC(CO)N(CC=C(C)C)Cc1ccsc1 (stereo not drawn) | -2.49
Cc1cc(CN2C[C@@H]3CN(Cc4ccsc4)CCO[C@@H]3C2)no1 | 7.7
O[C@H]1CC[C@@H](Cc2cc(-c3ccccn3)on2)O[C@@H]1CNCC1CC1 | -7.3

Structure (SMILES) | cytotoxicity at 70.5 h [%]
Nc1ccc(CC2CCCN(Cc3c[nH]cn3)C2)nn1 (stereo not drawn) | -2.3
Cn1ccnc1-c1cccc(NC(=O)NCCCN2CCOCC2)c1 | -2.94
CCCc1noc(C(C)N(CC)Cc2ccco2)n1 (stereo not drawn) | 7.58
CCCN1CCN(Cc2cc3cc(OCC)ccc3[nH]c2=O)CC1 | -6.17
COc1ccc(CN2CCC3(CC2)CC(CC(=O)NC(C)C)CO3)cc1 (stereo not drawn) | -14.4
CC(C)c1ccc(S(=O)(=O)Cc2nc(N)nc(N(C)C)n2)cc1 | -1.91
CC(C)NC(=O)[C@H]1C[C@@H]2[C@@H](C1)OCCN2Cc1ccncc1 | -7.54
Cc1cnc(CN(C)C2CCN(CCn3cc(C#N)cn3)C2)o1 (stereo not drawn) | 7.37
CN(C)S(=O)(=O)c1ccc(CN2CCCC2CO)o1 (stereo not drawn) | -17
CN(Cc1cccnc1)[C@@H]1CN(C(=O)c2ccno2)[C@@H]2CCCO[C@H]12 | -5.28
Cc1nsc(N2CCCN(C(=O)NCc3cc(C)on3)CC2)n1 | -1.32
CCc1cc(N2CCC(N[C@@H]3CS(=O)(=O)C[C@H]3O)CC2)nc(N(C)C)n1 | 0.303
Cn1cc(CN2C[C@H]3CCC[C@@]3(COCC3CC3)C2)cn1 | -1.1
CC1CCCN(C(=O)NCCCn2cncn2)C1 (stereo not drawn) | -4.06
Cc1ccc(-c2n[nH]cc2CNCC2CCc3nnc(C)n3C2)cc1 (stereo not drawn) | -0.696
O=S(=O)(Nc1cnn(C2CCOCC2)c1)c1ccc2c(c1)CCO2 | -5.29
Cc1ccc(-n2ncc(C(=O)N3CCCC3c3cnn(C)c3)c2C)cc1 (stereo not drawn) | 11.4
CC1(C(=O)N2CCOCC2)CN(Cc2c[nH]cn2)CCO1 (stereo not drawn) | -0.532
Cn1ncnc1CCNC(=O)c1cc(Cl)c(Cl)n1C | -2.76
O=C(C1CCCCN1Cc1nccn1CC(F)(F)F)N1CCCC1 (stereo not drawn) | -2.02
CC(CNC(=O)c1cccnc1O)Cn1cccn1 (stereo not drawn) | -7.01
